Laboratory results from publication PMC7029871, “Development and validation of a sensitive LC-MS/MS method for the quantitation of IMB-YH-4py5-2H, an antituberculosis candidate, and its application to the pharmacokinetic study” (PLoS ONE, 2020).

Assays:
[1] = tested on: intracellular M. tuberculosis H37Rv; assay: Intracellular activity assay in infected macrophages; type: cell-based, Mycobacterium tuberculosis; details: three-day incubation, infected J744 macrophages, untreated 6.47±0.04
[2] = design: method as in PMID 26579477; details: oral administration of 200 mg/kg; cited from earlier work
[3] = cited from earlier work

Which Log10CFU ([1]; 0.5 μg/mL) does the source give for `NNC(=O)c1ccncc1` [Isoniazid, reference compound] here?
The Log10CFU was 4.60±0.05 Log10CFU.

What about the Log10CFU ([1]; 1 μg/mL) of the same compound?
The Log10CFU was 3.57±0.06 Log10CFU.

And the Log10CFU ([1]; 2 μg/mL)?
Its Log10CFU is 4.01±0.14 Log10CFU.

For `COC(=O)/C=C/C(=O)c1ccc(OC)cc1` [YH-8, (E)-Methyl-4-aryl-4-oxabut-2-enoate, reference compound], which “serum Cmax” value [2] is on record?
The value was “lower than 0.5 μg/mL”.

What about the “time until serum level decreased below the therapeutic range” value [2] of the same compound?
Its value is “less than 1 hour”.

And the solubility [3]?
Its solubility is “poor solubility”.
